Experiments:
eosinophils [1] = test: Eosinophil superoxide production (cytochrome c reduction) in protein-coated tissue culture wells; format: cell-based, human; conditions: for inhibition of superoxide production stimulated by 30 micrograms per milliliter of immobilized lactoferrin: heparin 1000 micrograms per milliliter (highest concentration tested), 120 minutes at 37° C; for inhibition of superoxide production stimulated by immobilized lactoferrin (in words): lower concentrations of heparin, any of the concentrations of chondroitin sulfate (30 to 1000 micrograms per milliliter)
Method: Neutrophils were isolated from venous blood of healthy adult volunteers by density gradient centrifugation through lymphocyte separation medium (BioWhittaker; Walkersville, Md.) as described previously (Haskell M. D., et al., Blood 86:4627-4637 (1995)) with one modification. Isotonicity was restored following the brief hypotonic lysis steps by the addition of 2× concentrated Hank's Balanced Salt Solution (HBSS) (Gibco; Grand Island, N.Y.) (without Ca^2+ and Mg^2+) containing 5 mM HEPES, pH 7.4. The cells were suspended in HEPES (10 mM)-buffered HBSS (with Ca^2+ and Mg^2+), pH 7.4, containing 1 milligram per milliliter of human serum albumin (HSA) (Sigma Chemical Co.) (HEPES-HBSS-HSA buffer). Neutrophil purity was routinely greater than 95 percent, with eosinophils representing the remainder of the cells. Eosinophils were isolated from the neutrophil preparations by negative selection (Hansel T. T., et al., J. Immunol. Meth. 145:105-10 (1991)) using anti-CD16 immunomagnetic beads as described by the manufacturer (Miltenyi Biotec, Inc., Auburn, Calif.). The eosinophils were suspended in HEPES-HBSS-HSA buffer. Eosinophil purity was routinely greater than 95 percent as determined by counting Wright-stained cytospin preparations. In some assays, an aliquot of the neutrophil preparation was held on ice for later use.
Superoxide production was measured essentially as described elsewhere (Motegi, Y., and H. Kita, J. Immunol. 161:4340 (1998)). Briefly, wells in a 96-well (flat bottom) tissue culture plate (Corning, Inc.; Corning, N.Y.) were coated with human milk lactoferrin (Sigma Chemical Co.) or human secretory IgA (ICN Biomedical; Aurora, Ohio) by incubation with 50 microliters of the indicated concentrations of the proteins in phosphate buffered saline (PBS) overnight at 4° C. Non-specific protein binding sites were blocked by subsequent incubation with 100 microliters of 25 milligrams per milliliter of HSA in PBS for 2 hours at 37° C., and the tissue culture wells were washed twice with PBS before use. Aliquots (5×10^4 cells) of eosinophils or neutrophils were added to the wells and were incubated in HEPES-HBSS—HSA buffer containing 50 micromolar cytochrome c (Sigma Chemical Co.) for 120 minutes at 37° C. in a Ceres UV900HDi microplate reader (Bio-Tek Instruments, Inc., Winooski, Vt.). Total incubation volume was 0.2 milliliters. Absorbance at 550 nanometers was recorded at 15-minute intervals, and superoxide production was calculated as described previously (Motegi, Y., and H. Kita, J. Immunol. 161:4340 (1998)). Results are expressed as nanomoles superoxide per 10^5 cells after subtraction of spontaneous production, which was measured in tissue culture wells coated only with HSA. GM-CSF (R & D Systems; Minneapolis, Minn.), porcine heparin (Sigma Chemical Co.), or chondroitin sulfate C (Sigma Chemical Co.) was added to the incubation mixtures in some assays as indicated.

[2] = system: lactoferrin receptors on eosinophils; test: Binding of 125I-labeled lactoferrin by eosinophils, Scatchard analysis; design: species or system human; conditions: 5 micromolar transferrin, 90 nanomolar 125I-labeled lactoferrin, n=2
Method: Lactoferrin (100 micrograms) was radioiodinated using IODO-GEN iodination reagent (Pierce; Rockford, Ill.) according to the procedure supplied by the manufacturer. The lactoferrin was incubated with 400 micro Curies Na^125I (PerkinElmer Life Sciences; Boston, Mass.) for 3 min, and the ^125I-labeled lactoferrin was separated from free Na^125I by chromatography through a 5-ml D-Salt dextran desalting column (Pierce) using PBS as the elution buffer. Protein concentration of the ^125I-labeled lactoferrin was measured by the BCA assay (Pierce). Specific activity of the ^125I-labeled lactoferrin was 34,800 cpm/pmole. […] Binding of ^125I-labeled lactoferrin by eosinophils was determined using a modification of previously described protocols for eosinophils. Motegi et al. J. Immunol. […] In some experiments as indicated, binding was measured in the presence of excess unlabeled transferrin. […] The supernatant was removed by careful aspiration, and after quick-freezing on dry ice the tip of the tube containing the cell pellet was excised and the radioactivity was measured by gamma counting (Beckman Coulter Gamma 5500B). Specific binding was determined as the difference between total binding and binding in the presence of the excess unlabeled lactoferrin. Binding constants were determined by Scatchard analysis (Scatchard, G., Ann. N.Y. Acad. Sci. 51:660 (1949)).

eosinophils [3] = test: Eosinophil leukotriene C4 production by ELISA; format: cell-based, human
Method: Eosinophils (2×10^5) were incubated in the presence and absence of 100 pg/ml GM-CSF in RPMI 1640 containing 10 mM HEPES for 1 hr at 37° C. in tissue culture wells precoated with lactoferrin or secretory IgA as above with one modification. The tissue culture wells were not treated with HSA and HSA was not added to the incubation buffer to minimize loss of leukotriene C4. Total incubation volume was 0.2 ml. Reactions were stopped by centrifugation at 300 g for 5 min at 4° C., and supernatants were stored at −20° C. until measurement of leukotriene C4 content by a leukotriene C4/D4/E4 ELISA (Amersham Pharmacia Biotech; Piscataway, N.J.). Spontaneous leukotriene C4 production was determined with eosinophils incubated in untreated tissue culture wells.

eosinophils [4] = test: Eosinophil degranulation: EDN release by ELISA; format: cell-based, human; conditions: 100 picograms per milliliter GM-CSF, 3 and 10 micrograms per milliliter immobilized lactoferrin
Method: Eosinophils (2×10^5) were incubated in the presence and absence of 100 picograms per milliliter of GM-CSF in RPMI 1640 containing 1 milligram per milliliter of HSA for 4 hours at 37° C. in 5 percent CO2 in tissue culture wells precoated with lactoferrin or secretory IgA as above. Total incubation volume was 0.2 milliliters. Reactions were stopped by centrifugation at 300 g for 5 minutes at 4° C., and supernatants were stored at −20° C. until measurement of eosinophil-derived neurotoxin (EDN) content by specific ELISA (MBL International, Watertown, Mass.). Spontaneous release of EDN was determined with cells incubated in HSA-coated wells.

heparin [reference compound]
inhibition of superoxide production stimulated by 10 micrograms per milliliter immobilized secretory IgA (eosinophils [1]; 1000 micrograms per milliliter heparin, not statistically significant (p=0.07)): 28+/−11%
inhibition of superoxide production stimulated by 30 micrograms per milliliter of immobilized lactoferrin (eosinophils [1]): approximately 25%
inhibition of superoxide production stimulated by 30 micrograms per milliliter of immobilized lactoferrin (eosinophils [1]; listed as Heparin): 25%
inhibition of superoxide production stimulated by immobilized lactoferrin (in words) (eosinophils [1]): neither the lower concentrations of heparin nor any of the concentrations of chondroitin sulfate inhibited the eosinophil superoxide production

immobilized transferrin: transferrin, family member of lactoferrin, coated on tissue culture wells [reference compound]
stimulation of eosinophil superoxide production (in words) (eosinophils [1]; 1 to 100 micrograms per milliliter of the protein, 2 hours at 37° C): did not stimulate superoxide production

transferrin: unlabeled transferrin used in excess as competitor in the binding experiments [reference compound]
inhibition of eosinophil binding of 125I-labeled lactoferrin [2]: not inhibited

chondroitin sulfate [reference compound]
effect on superoxide production stimulated by immobilized lactoferrin (in words) (eosinophils [1]; 1000 micrograms per milliliter, 30 micrograms per milliliter immobilized lactoferrin): slight, but statistically significant, increase in superoxide production
inhibition of superoxide production stimulated by immobilized lactoferrin (in words) (eosinophils [1]): neither the lower concentrations of heparin nor any of the concentrations of chondroitin sulfate inhibited the eosinophil superoxide production

GM-CSF: granulocyte macrophage colony stimulating factor (R & D Systems)
reduction by GM-CSF of the concentration of immobilized lactoferrin required for maximal superoxide production or EDN release (eosinophils [1]; 100 picograms per milliliter GM-CSF): approximately three-fold
effect of GM-CSF on superoxide production stimulated by immobilized lactoferrin (eosinophils [1]; 100 picograms per milliliter GM-CSF, 10 micrograms per milliliter immobilized lactoferrin): enhanced the amount of superoxide production
effect of GM-CSF on superoxide production stimulated by immobilized lactoferrin (eosinophils [1]; 100 picograms per milliliter GM-CSF, higher concentrations of immobilized lactoferrin): did not appear to increase the level of superoxide production
GM-CSF stimulated superoxide production (eosinophils [1]; GM-CSF alone (100 picograms per milliliter), 2-hour time point, five assays): 2.8±0.7 nanomoles of superoxide per 10^5 eosinophils
leukotriene C4 production (eosinophils [3]; 100 picograms per milliliter GM-CSF alone, 1 hour): 175 picograms leukotriene C4 per 10^6 eosinophils
effect of GM-CSF on leukotriene C4 release stimulated by immobilized lactoferrin (eosinophils [3]; 100 picograms per milliliter GM-CSF, 10 to 100 micrograms per milliliter immobilized lactoferrin): significantly enhanced leukotriene C4 release
effect of GM-CSF on EDN release stimulated by immobilized lactoferrin (eosinophils [4]): significantly enhanced EDN release

Source: patent US20040259770A1, “Method for determining leukocyte activation” (Rush University Medical Center, priority 2003, published 2004)
